From patent US20100179118A1, “CYCLIC AMINOALKYLCARBOXAMIDE DERIVATIVE” (DAINIPPON SUMITOMO PHARMA CO., LTD., priority 2006, published 2010)

Tests used:
[1] = test system: BN rat DNCB repetitive application dermatitis model; assay: Suppressive action on BN rat DNCB repetitive application dermatitis model; format: in vivo; settings: dose 2 mg/kg, oral once a day; AUC of ear thickness increase vs solvent control; male BN rat
Method: Suppressive Action on BN Rat DNCB Repetitive Application Dermatitis Model
A 8-week-old male rat was sensitized by applying 30 μL of 1.5 wt % solution of dinitrochlorobenzene (DNCB) dissolved in acetone:olive oil=4:1 solution to the right ear on day 1 and 3 days later. Starting from one week thereafter, the same solution was consecutively applied to the right ear every other day in total of 6 times, whereby chronic dermatitis was induced in which the skin thickness increases with time. As for the level of dermatitis, the thickness was measured with a dial gauge thickness before application of the solution, and expressed by the difference from the measured thickness of the right ear immediately before induction on day 1 of the induction. The drug was suspended in 0.5 wt % tragacanth, and orally administered once a day immediately before induction on day 1 of the induction and after 24 hr value measurement the next day. The changes in the ear tumentia with time were monitored, and the area under the curve in a graph showing the values up to 48 hr after the final induction was calculated, from which the percent suppression relative to the area of the solvent control group was determined. As a comparison control compound, prednisolone, which is a steroid, was used.

[2] = test system: TMA (trimellitic anhydride) repetitive application dermatitis model; assay: Suppressive action on TMA (trimellitic anhydride) repetitive application dermatitis model; format: in vivo, mice; settings: for inhibition in vivo at 20 mg/kg: Mus musculus, 8 h, oral twice (30 min before and 4 hr after induction), ear thickness vs solvent control, male BALB/c mice, read-out: right ear suppression (%) at 8 hr after final induction

SMILES	suppression (%) at 48 hr after final induction [1] [%]	inhibition in vivo at 20 mg/kg [2] [%]	right ear suppression (%) at 8 hr after final induction ([2]; mouse, in vivo, po, 80 mg/kg) [%]
C[C@]12C=CC(=O)C=C1CC[C@@H]1[C@@H]2[C@@H](O)C[C@@]2(C)[C@H]1CC[C@]2(O)C(=O)CO [prednisolone, reference compound]	44.0	67.8	–
O=C(O)c1cccc(N(C(=O)CN2CCCC2)C2CCN(C(=O)c3ccc(C(F)(F)F)cc3)CC2)c1 [Example 227, N-(3-carboxylphenyl)-2-(pyrrolidin-1-yl)-N-[1-(4-trifluoromethylbenzoyl)piperidin-4-yl]acetamide]	–	–	57.2
O=C(c1ccc(Cl)cc1)N1CCC(N(C(=O)CN2CCOCC2)C2CCCCC2)CC1 [Example 65, N-[1-(4-chlorobenzoyl)piperidin-4-yl]-N-cyclohexyl-2-(morpholin-4-yl)acetamide]	20.5	41	–
